ChEMBL document CHEMBL5518186, “Discovery of the cereblon-recruiting tubulin PROTACs effective in overcoming Taxol resistance in vitro and in vivo” (Eur J Med Chem, 2024)
The source made the active and inactive calls. No cut-off for these calls is given here.

Columns and labels:
A549/TR [1] = assay: Induction of cell cycle arrest in human A549/Taxol cells assessed as accumulation of cells at G0/G1 phase at 1 uM incubated for 24 hrs by PI staining based flow cytometry analysis (reference value: 77.86%); type: functional
A549 [2] = assay: Induction of cell cycle arrest in human A549 cells assessed as accumulation of cells at G0/G1 phase at 0.02 uM incubated for 24 hrs by PI staining based flow cytometry analysis (reference value: 66.75%); type: functional
A549/TR [3] = assay: Inhibition of cell growth in human A549/Taxol cells incubated for 72 hrs by SRB method; type: functional, cell-based
A549/TR [4] = assay: Induction of cell cycle arrest in human A549/Taxol cells assessed as accumulation of cells at G2/M phase at 1 uM incubated for 24 hrs by PI staining based flow cytometry analysis (reference value: 17.02%); type: functional
A549 [5] = assay: Antitumor activity against human A549 cells xenografted in nude mouse assessed as tumor growth inhibition at 10 mg/kg, ip administered once every 2 days for 23 days by Vernier caliper method; type: functional; conditions: A549, 552 h, time 23 day, read-out: TGI
A549 [6] = assay: Induction of cell cycle arrest in human A549 cells assessed as accumulation of cells at G2/M phase at 0.02 uM incubated for 24 hrs by PI staining based flow cytometry analysis (reference value: 31.86%); type: functional
A549 [7] = assay: Antitumor activity against human A549 cells xenografted in nude mouse assessed as decrease in tumor weight at 10 mg/kg, ip administered once every 2 days for 23 days by Vernier caliper method; type: functional, organism-based; conditions: time 23.0 day
A549 [8] = assay: Induction of cell cycle arrest in human A549 cells assessed as accumulation of cells at S phase at 0.02 uM incubated for 24 hrs by PI staining based flow cytometry analysis (reference value: 2.85%); type: functional
A549/TR [9] = assay: Induction of cell cycle arrest in human A549/Taxol cells assessed as accumulation of cells at S phase at 1 uM incubated for 24 hrs by PI staining based flow cytometry analysis (reference value: 2.85%); type: functional
A549/TR [10] = assay: Induction of apoptosis in human A549/Taxol cells at 1 uM incubated for 48 hrs by Annexin V-FITC/PI staining based flow cytometry analysis; type: functional
[11] = Toxicity in nude mouse xenografted with human A549/Taxol cells assessed as body weight loss at 10 mg/kg, ip administered once every 2 days for 23 days and measured every 3 days; type: organism-based, A549/TR; conditions: in vivo, 552 h, time 23 day
A549/TR [12] = assay: Antitumor activity against human A549/Taxol cells xenografted in nude mouse assessed as tumor growth inhibition at 10 mg/kg, ip administered once every 2 days for 23 days by Vernier caliper method; type: functional; conditions: 552 h, time 23 day, read-out: TGI
A549 [13] = assay: Antitumor activity against human A549 cells xenografted in nude mouse assessed as decrease in tumor volume at 10 mg/kg, ip administered once every 2 days for 23 days by Vernier caliper method; type: functional, organism-based; conditions: time 23.0 day
[14] = Toxicity in nude mouse xenografted with human A549 cells assessed as body weight loss at 10 mg/kg, ip administered once every 2 days for 23 days and measured every 3 days; type: organism-based; conditions: in vivo, 552 h, time 23 day
A549/TR [15] = assay: Induction of cell cycle arrest in human A549/Taxol cells assessed as accumulation of cells at G0/G1 phase at 0.1 uM incubated for 24 hrs by PI staining based flow cytometry analysis (reference value: 77.86%); type: functional
A549/TR [16] = assay: Induction of cell cycle arrest in human A549/Taxol cells assessed as accumulation of cells at G2/M phase at 0.1 uM incubated for 24 hrs by PI staining based flow cytometry analysis (reference value: 17.02%); type: functional
A549/TR [17] = assay: Induction of cell cycle arrest in human A549/Taxol cells assessed as accumulation of cells at S phase at 0.1 uM incubated for 24 hrs by PI staining based flow cytometry analysis (reference value: 2.85%); type: functional
A549/TR [18] = assay: Induction of apoptosis in human A549/Taxol cells at 0.1 uM incubated for 48 hrs by Annexin V-FITC/PI staining based flow cytometry analysis; type: functional
A549 [19] = assay: Antiproliferative activity against human A549 cells incubated for 72 hrs; type: functional, cell-based; conditions: A549, 72 h

SMILES | Activity (A549/TR [1]) [%] | Activity (A549 [2]) [%] | IC50 (A549/TR [3]) [nM] | Activity (A549/TR [4]) [%] | inhibition in vivo at 10 mg/kg (A549 [5]) [%] | Activity (A549 [6]) [%] | Activity (A549 [7]) | Activity (A549 [8]) [%] | Activity (A549/TR [9]) [%] | Activity (A549/TR [10]) [%] | Activity [11] | inhibition in vivo at 10 mg/kg (A549/TR [12]) [%] | Activity (A549 [13]) | Activity [14] | Activity (A549/TR [15]) [%] | Activity (A549/TR [16]) [%] | Activity (A549/TR [17]) [%] | Activity (A549/TR [18]) [%] | IC50 (A549 [19]) [nM]
CC(=O)O[C@H]1C(=O)[C@@]2(C)[C@H]([C@H](OC(=O)c3ccccc3)[C@]3(O)C[C@H](OC(=O)[C@H](O)[C@@H](NC(=O)c4ccccc4)c4ccccc4)C(C)=C1C3(C)C)[C@]1(OC(C)=O)CO[C@@H]1C[C@@H]2O [PACLITAXEL] | 20.43 | 10.8 | 1030 | 74.23 | 28.5 | 83.1 | Active | 6.1 | 5.77 | 22.7 | Non-Toxic | 52 | Active | Non-Toxic | – | – | – | – | –
COc1ccc(/C=C\c2cc(OC)c(OC)c(OC)c2)cc1O [COMBRETASTATIN A4] | – | – | – | – | – | – | – | – | – | – | – | – | – | – | 21.17 | 64.76 | 17.89 | 26.9 | 5
